Values quoted from earlier work in patent US11091735B2, “Polyvalent culture medium for anaerobic bacteria under aerobic conditions” (FONDATION MEDITERRANEE INFECTION, priority 2017, dated 2021).

Settings: stock solution therefore prepared in ethanol

Molecule	solubility in water
Cc1cc(C(C)(C)C)c(O)c(C(C)(C)C)c1 [BHT, Butylhydroxytoluene]	not soluble in water
vitamin E	not soluble in water
